Values of other authors as cited in US12219980B2, “Nutritionally enhanced fraction from rice bran and method of lowering insulin resistance using same” (QJV, LLC, priority 2010, dated 2025).

How the values were obtained:
HMG-CoA = target: T1, HMG-CoA (Homo sapiens, UniProt P04035); settings: micromolar amounts
T1 sequence (P04035 1-888): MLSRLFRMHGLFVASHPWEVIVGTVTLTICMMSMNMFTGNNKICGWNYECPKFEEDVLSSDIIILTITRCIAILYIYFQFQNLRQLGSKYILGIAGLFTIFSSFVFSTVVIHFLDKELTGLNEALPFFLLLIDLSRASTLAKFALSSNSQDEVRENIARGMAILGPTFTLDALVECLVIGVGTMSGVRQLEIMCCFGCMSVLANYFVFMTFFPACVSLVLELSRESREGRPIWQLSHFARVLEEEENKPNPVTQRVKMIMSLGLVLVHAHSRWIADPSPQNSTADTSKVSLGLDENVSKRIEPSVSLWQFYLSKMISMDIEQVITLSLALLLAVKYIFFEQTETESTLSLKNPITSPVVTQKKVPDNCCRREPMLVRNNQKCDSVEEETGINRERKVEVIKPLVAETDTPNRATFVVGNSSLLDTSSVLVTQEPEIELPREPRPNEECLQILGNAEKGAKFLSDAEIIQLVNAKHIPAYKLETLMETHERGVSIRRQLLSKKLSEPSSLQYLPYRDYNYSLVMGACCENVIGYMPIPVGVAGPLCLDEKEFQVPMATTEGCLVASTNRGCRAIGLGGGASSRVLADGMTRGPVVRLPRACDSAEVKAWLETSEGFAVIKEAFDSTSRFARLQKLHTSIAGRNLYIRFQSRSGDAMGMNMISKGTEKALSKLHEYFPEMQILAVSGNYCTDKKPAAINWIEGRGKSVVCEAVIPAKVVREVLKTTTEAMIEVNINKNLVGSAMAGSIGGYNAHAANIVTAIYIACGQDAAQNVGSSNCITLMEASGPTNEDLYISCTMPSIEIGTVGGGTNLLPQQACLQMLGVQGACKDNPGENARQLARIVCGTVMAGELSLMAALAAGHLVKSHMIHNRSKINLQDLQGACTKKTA

[1] = in vivo
[2] = in vivo; remark: listed apart in the source
[3] = animal studies, compared with controls

tocotrienol
activity of HMG-CoA (HMG-CoA): suppress the activity of HMG-CoA | total cholesterol and LDL cholesterol in blood plasma [1]: lower

gamma-oryzanol
bile acid secretion and fecal excretion of cholesterol [2]: affect bile acid secretion and fecal excretion of cholesterol

COc1cc(/C=C/C(=O)O)ccc1O [ferulic acid]
activities of hepatic glucose-6-phosphate dehydrogenase, catalase and peroxidase [3]: diminishing | levels of glycogen in the liver and skeletal muscle [3]: significantly decreased
